# Laboratory results taken from PMC5513037, “Examining the influence of specificity ligands and ATP-competitive ligands on the overall effectiveness of bivalent kinase inhibitors” (Proteome Science, 2017).
# pIC50: −log10 of the molar value.
# Assays:
# [1] = test system: ABL1; assay: KAM-matrix competition in K562 lysate; type: binding, human
# Method: For synthesis of KAM-derivatized resin, packed NHS-activated sepharose 4 fast flow resin (volume = 2 mL; GE Healthcare) was washed with anhydrous DMSO (3 × 10 mL). To the washed NHS-activated sepharose resin was added 0.5 mM KAM in anhydrous DMSO (8 mL; 2 μmol compound/mL of resin), followed by the addition of triethylamine (30 μL). The reaction mixture was vortexed to mix and pelleted by centrifugation (100 x g, 2 min). An aliquot of the supernatant (50 μL) was saved for LC/MS analysis. The reaction mixture was allowed incubate overnight at room temp with end-over-end rotating agitation. On the following day, the reaction mixture was pelleted by centrifugation (100 x g, 2 min). An aliquot of the supernatant (50 μL) was saved for LC/MS analysis. […] 2-(2-Aminoethoxy)ethanol (100 μL; Sigma-Aldrich) was added to the reaction mixture, vortexed, and incubate overnight at room temp with end-over-end agitation. The KAM-derivatized resin was then washed with anhydrous DMSO (3 × 10 mL) and 95% EtOH (3 × 10 mL).
# Data were visualized for further analysis using Spotfire DXP.
# [2] = target: T1, MAP2K5 (Homo sapiens, UniProt Q13163); assay: KAM-matrix competition in K562 lysate; type: binding; conditions: relative to 0 uM KAM = 0;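 further: median log10 fold change of treatment over DMSO control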
# T1 construct: endogenous in cells; host or cells: K562
# T1 sequence (Q13163 1-448): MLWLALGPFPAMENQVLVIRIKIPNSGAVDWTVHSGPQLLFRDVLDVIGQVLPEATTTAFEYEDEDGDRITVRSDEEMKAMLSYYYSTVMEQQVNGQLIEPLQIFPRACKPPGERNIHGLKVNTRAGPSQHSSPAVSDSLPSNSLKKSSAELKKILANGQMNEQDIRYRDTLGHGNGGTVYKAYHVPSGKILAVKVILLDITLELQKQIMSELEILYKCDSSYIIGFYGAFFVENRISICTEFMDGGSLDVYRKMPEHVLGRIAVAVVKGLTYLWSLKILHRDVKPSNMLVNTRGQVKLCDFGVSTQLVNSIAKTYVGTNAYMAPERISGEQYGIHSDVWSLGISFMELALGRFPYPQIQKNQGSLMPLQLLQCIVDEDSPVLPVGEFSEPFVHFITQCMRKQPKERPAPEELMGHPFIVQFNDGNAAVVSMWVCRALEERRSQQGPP
# Method: Supplement 12953_2017_125_MOESM1_ESM.zip/MS_Supp Info.xlsx, sheet "KAM" | column: 10 uM KAM; 1 uM KAM; 0.1 uM KAM; 0.01 uM KAM
# [3] = target: ATM (Homo sapiens, UniProt Q13315); assay: KAM-matrix competition in K562 lysate; type: binding; parameters: endogenous in cells; host or cells: K562;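 on 0.001 uM KAM: median log10 fold change of treatment over DMSO control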;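 on 0.01 uM KAM: median log10 fold change of treatment over DMSO control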;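 on 0.1 uM KAM: median log10 fold change of treatment over DMSO control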;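 on 1 uM KAM: median log10 fold change of treatment over DMSO control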;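 on 10 uM KAM: median log10 fold change of treatment over DMSO control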
# ATM, sequence (Q13315 whole entry): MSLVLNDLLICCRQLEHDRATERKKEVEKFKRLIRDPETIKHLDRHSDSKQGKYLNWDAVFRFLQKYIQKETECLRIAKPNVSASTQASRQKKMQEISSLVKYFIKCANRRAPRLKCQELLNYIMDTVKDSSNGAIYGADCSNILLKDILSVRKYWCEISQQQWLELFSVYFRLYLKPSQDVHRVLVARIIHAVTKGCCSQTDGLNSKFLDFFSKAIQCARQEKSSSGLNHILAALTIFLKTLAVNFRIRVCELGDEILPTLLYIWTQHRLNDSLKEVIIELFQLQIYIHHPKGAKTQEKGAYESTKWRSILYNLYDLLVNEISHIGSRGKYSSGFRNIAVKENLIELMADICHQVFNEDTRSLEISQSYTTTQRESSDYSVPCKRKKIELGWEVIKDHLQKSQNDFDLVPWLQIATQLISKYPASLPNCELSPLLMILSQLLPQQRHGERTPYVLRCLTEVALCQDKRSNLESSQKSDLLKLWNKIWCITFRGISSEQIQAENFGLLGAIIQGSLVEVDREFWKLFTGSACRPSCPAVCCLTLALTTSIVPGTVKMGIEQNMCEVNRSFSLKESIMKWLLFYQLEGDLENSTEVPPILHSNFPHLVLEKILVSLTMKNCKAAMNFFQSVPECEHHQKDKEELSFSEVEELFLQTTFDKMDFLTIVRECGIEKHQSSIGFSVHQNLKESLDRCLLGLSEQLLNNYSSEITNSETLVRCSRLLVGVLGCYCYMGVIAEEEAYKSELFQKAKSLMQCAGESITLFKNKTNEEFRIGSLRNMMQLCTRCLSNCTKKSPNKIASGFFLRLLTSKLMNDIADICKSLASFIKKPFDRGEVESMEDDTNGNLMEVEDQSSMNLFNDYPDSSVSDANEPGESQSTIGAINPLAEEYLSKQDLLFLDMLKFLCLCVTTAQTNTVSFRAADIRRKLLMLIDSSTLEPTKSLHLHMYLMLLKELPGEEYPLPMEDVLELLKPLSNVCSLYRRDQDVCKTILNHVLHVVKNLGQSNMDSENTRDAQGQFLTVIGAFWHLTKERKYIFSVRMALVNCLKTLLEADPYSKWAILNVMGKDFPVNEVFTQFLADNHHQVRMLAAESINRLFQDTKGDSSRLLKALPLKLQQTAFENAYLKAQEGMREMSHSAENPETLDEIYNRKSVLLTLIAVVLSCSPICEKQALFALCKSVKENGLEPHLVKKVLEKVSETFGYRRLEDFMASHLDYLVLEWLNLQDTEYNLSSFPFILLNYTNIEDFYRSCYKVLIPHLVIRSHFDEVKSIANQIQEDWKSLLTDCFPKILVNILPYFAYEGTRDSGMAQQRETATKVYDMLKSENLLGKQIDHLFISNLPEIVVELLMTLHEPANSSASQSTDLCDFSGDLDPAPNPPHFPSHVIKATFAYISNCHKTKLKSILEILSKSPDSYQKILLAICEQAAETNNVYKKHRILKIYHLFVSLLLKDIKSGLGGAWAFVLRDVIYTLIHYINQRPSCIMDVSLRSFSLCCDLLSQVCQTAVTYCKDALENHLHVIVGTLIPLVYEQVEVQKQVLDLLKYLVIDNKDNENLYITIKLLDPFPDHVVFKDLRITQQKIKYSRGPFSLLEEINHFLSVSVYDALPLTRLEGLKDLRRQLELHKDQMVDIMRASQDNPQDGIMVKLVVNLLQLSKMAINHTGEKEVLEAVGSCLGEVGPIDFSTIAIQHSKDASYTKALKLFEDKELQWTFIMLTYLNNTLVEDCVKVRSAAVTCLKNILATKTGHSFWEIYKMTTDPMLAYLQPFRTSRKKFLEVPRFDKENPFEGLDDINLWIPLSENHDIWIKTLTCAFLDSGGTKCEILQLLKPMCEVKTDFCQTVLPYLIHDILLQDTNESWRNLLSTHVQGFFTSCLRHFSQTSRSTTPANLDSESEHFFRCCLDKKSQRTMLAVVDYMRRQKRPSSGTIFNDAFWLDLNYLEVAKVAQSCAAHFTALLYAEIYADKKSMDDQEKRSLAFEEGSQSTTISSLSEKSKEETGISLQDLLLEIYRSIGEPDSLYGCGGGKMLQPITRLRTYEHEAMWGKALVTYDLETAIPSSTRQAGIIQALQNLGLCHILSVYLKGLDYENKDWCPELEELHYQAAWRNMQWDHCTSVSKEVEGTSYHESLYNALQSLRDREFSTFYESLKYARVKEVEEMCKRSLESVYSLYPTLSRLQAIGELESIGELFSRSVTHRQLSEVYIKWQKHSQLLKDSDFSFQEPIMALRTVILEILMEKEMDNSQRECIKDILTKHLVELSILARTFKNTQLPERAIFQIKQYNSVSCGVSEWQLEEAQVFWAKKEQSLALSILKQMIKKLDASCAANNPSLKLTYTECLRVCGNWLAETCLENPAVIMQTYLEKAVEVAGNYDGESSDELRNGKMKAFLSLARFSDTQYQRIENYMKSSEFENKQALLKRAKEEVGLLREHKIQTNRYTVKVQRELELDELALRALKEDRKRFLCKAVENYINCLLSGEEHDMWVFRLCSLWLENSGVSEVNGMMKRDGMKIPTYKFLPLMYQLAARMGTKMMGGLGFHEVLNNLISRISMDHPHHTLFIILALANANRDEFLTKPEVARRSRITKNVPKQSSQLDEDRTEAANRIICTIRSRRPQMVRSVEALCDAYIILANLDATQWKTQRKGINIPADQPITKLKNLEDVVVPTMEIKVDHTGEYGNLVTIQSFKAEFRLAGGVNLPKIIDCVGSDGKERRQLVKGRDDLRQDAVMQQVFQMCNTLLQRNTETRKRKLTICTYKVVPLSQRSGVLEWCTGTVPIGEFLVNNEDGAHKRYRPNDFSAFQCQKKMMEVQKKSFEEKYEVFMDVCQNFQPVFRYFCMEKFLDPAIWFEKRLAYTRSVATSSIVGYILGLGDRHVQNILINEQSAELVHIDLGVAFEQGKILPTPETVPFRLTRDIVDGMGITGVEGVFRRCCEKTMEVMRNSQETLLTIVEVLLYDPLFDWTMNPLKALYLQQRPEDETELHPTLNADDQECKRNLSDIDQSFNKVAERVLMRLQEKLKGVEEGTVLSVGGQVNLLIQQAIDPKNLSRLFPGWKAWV
# Method: (§1) Supplement 12953_2017_125_MOESM1_ESM.zip/MS_Supp Info.xlsx, sheet "KAM" | column: 10 uM KAM; 1 uM KAM; 0.1 uM KAM; 0.01 uM KAM; 0.001 uM KAM; RB50
# [4] = target: T2, SCYL1 (Homo sapiens, UniProt Q96KG9); assay: KAM-matrix competition in K562 lysate; type: binding; parameters: endogenous in cells; host or cells: K562;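 on 0.001 uM KAM: median log10 fold change of treatment over DMSO control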;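 on 0.01 uM KAM: median log10 fold change of treatment over DMSO control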;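 on 0.1 uM KAM: median log10 fold change of treatment over DMSO control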;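 on 1 uM KAM: median log10 fold change of treatment over DMSO control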;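 on 10 uM KAM: median log10 fold change of treatment over DMSO control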
# T2 sequence (Q96KG9 1-808): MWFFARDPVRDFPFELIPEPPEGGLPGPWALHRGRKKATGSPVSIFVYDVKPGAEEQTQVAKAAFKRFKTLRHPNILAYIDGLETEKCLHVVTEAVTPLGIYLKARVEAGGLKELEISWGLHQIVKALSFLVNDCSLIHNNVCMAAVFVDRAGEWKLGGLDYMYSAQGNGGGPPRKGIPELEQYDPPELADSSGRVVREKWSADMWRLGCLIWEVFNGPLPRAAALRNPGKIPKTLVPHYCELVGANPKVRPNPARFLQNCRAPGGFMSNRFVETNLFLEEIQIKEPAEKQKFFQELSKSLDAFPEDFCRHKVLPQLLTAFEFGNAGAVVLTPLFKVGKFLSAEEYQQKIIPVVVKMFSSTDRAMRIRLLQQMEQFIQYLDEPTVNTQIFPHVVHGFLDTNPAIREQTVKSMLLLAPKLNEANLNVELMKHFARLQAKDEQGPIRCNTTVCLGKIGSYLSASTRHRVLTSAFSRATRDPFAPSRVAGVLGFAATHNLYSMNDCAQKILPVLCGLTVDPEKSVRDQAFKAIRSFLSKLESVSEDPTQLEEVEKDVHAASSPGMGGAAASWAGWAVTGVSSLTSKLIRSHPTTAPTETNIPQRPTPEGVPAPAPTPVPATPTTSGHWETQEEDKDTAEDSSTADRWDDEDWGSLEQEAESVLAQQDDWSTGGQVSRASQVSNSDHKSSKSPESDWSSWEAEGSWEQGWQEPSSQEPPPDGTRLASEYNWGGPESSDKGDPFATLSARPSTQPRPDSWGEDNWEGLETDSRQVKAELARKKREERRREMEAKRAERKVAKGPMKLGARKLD
# Method: as §1
# [5] = target: T2, SCYL1; assay: biochemical
# [6] = KAM 0.001-10 uM, read-out: RB50 (the source's name)
# ABL1, sequence (P00519 28-1130): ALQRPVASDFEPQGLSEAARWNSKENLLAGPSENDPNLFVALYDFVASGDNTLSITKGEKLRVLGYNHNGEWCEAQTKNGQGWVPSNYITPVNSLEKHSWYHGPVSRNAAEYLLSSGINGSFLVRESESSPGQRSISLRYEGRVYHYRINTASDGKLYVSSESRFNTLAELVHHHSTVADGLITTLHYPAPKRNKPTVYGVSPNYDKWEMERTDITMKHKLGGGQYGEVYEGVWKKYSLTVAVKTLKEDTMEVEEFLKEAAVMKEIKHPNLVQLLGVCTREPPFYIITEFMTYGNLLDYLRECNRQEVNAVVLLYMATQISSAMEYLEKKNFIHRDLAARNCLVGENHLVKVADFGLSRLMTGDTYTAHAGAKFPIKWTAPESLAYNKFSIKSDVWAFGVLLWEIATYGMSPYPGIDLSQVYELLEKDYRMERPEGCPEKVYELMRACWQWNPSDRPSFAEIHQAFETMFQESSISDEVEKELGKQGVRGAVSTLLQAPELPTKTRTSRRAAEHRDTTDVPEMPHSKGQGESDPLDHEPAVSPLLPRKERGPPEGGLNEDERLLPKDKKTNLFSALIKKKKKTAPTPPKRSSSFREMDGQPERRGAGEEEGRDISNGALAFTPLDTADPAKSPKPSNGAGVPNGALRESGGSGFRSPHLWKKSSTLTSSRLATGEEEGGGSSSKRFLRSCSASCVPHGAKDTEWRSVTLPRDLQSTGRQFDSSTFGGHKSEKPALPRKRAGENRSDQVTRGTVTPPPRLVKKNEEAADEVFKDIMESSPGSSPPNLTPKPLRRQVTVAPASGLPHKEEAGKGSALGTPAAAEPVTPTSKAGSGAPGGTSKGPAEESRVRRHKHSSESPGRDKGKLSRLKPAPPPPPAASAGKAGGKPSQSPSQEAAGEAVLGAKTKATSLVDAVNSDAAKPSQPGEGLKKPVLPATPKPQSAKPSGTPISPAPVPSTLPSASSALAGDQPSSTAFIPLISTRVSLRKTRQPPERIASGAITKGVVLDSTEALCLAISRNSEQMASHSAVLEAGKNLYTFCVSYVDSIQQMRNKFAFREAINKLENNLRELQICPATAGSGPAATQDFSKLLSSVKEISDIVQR
# ABL1, sequence (P11274 1-927 partner): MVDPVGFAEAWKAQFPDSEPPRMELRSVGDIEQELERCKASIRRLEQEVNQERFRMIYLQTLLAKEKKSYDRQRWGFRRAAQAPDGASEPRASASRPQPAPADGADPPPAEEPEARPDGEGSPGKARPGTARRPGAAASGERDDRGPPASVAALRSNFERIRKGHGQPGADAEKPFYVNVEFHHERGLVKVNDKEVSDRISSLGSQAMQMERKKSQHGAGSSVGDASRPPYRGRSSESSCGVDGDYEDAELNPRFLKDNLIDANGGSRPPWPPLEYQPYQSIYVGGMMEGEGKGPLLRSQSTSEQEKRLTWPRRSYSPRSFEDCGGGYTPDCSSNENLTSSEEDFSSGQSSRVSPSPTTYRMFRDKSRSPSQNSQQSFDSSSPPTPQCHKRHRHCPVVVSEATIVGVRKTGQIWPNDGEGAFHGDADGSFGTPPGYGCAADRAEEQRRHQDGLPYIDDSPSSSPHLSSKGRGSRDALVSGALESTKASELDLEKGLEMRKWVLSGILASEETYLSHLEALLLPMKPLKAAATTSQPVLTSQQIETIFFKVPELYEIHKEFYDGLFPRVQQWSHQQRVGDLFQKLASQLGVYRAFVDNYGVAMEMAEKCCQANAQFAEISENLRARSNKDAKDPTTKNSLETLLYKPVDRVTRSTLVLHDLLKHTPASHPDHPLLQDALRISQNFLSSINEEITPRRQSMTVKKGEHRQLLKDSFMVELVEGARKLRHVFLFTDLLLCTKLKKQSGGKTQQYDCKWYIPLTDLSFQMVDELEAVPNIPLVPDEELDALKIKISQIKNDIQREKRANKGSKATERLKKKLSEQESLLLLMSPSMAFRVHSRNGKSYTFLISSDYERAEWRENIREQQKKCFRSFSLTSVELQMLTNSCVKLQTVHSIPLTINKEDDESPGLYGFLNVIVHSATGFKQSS
structure (smiles),measurement,setting,value
N#CCc1ccc(Nc2nc(NCCCN)cc(Nc3cc(C4CC4)[nH]n3)n2)cc1 [KAM],median Log10 fold change,[1]; 0.001 uM KAM,-0.005017
same,median Log10 fold change,[1]; 0.01 uM KAM,-0.004253
same,median Log10 fold change,[1]; 0.1 uM KAM,-0.1612
same,median Log10 fold change,[1]; 1 uM KAM,-0.353
same,median Log10 fold change,[1]; 10 uM KAM,-0.4826
same,pIC50,"[1]; ABL1, KAM-based affinity matrix, K562 lysates, read-out: RB50 (the source's name)",6.12
same,0.01 uM KAM,[2],0.01409
same,0.1 uM KAM,[2],-0.1362
same,1 uM KAM,[2],-0.4773
same,10 uM KAM,[2],-0.5729
same,pIC50,[3]; [6],< 5.00
same,0.001 uM KAM,[3]; relative to 0 uM KAM = 0,-0.06745
same,0.01 uM KAM,[3]; relative to 0 uM KAM = 0,-0.02165
same,0.1 uM KAM,[3]; relative to 0 uM KAM = 0,-0.03764
same,1 uM KAM,[3]; relative to 0 uM KAM = 0,-0.07001
same,10 uM KAM,[3]; relative to 0 uM KAM = 0,0.01755
same,pIC50,[4]; [6],< 5.00
same,0.001 uM KAM,[4]; relative to 0 uM KAM = 0,0.01527
same,0.01 uM KAM,[4]; relative to 0 uM KAM = 0,0.01732
same,0.1 uM KAM,[4]; relative to 0 uM KAM = 0,0.09163
same,1 uM KAM,[4]; relative to 0 uM KAM = 0,0.1255
same,10 uM KAM,[4]; relative to 0 uM KAM = 0,0.1065
Cc1ccc(NC(=O)c2ccc(CN3CCN(C)CC3)cc2)cc1Nc1nccc(-c2cccnc2)n1 [Imatinib],pIC50,[5],< 5.00
